Earlier results on 1 molecule are cited in patent US20150031737A1, “STABILIZED CONTROLLED-RELEASE PHARMACEUTICAL COMPOSITION COMPRISING GLICLAZIDE” (RANBAXY LABORATORIES LIMITED, priority 2012, published 2015).

The structures appear in SMILES notation.

Turning to `Cc1ccc(S(=O)(=O)NC(=O)NN2CC3CCCC3C2)cc1` (stereo not shown) [Gliclazide], the pKa entry is on record as “about 5.8”.
